Patent US9376442B2, “Methylpyrrolopyrimidinecarboxamides” (Takeda GmbH, priority 2009, dated 2016)

Tests used:
[1] = test system: bleomycin-induced pulmonary fibrosis and pulmonary hypertension; conditions: Hemnes et al. 2008; cited from earlier work
[2] = test system: patients with pulmonary fibrosis; conditions: Ghofrani 2002, Collard 2007; cited from earlier work
mice = conditions: bleomycin-induced lung fibrosis model in mice; Cortijo et al. 2009; cited from earlier work
PDE5A1 = target: T1, PDE5A1 (Homo sapiens, UniProt O76074); test: Inhibition of type 5 phosphodiesterase (PDE5) activity, modified SPA test with human platelet lysate; format: biochemical; conditions: 0.5 μM cGMP, read-out: PDE5A1 inhibitory values [measured as −log IC50 (mol/l)] (converted)
T1 construct: from tissue; host or cells: human platelets from fresh donor blood (10,000 x g supernatant of sonicated lysate)
Summary of the method: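 Scintillation proximity assay with [3H]cGMP tracer at 0.5 μM total cGMP, stopped after 15 min with beads containing IBMX. PDE3 and PDE2 activities suppressed with motapizone (1 μM) and a PDE2 inhibitor (10 nM). Human platelet supernatant served as the enzyme, with compound preincubated 5 min at 37° C; IC50 values from concentration-effect curves.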

PDE4B1 = target: T2, PDE4B1 (Homo sapiens, UniProt Q07343); test: Inhibition of type 4 phosphodiesterase (PDE4) activity, modified SPA test with recombinant PDE4B1 expressed in SF21 insect cells; format: biochemical; conditions: recombinant PDE4B1, 0.5 μM cAMP, read-out: PDE4B1 inhibitory values [measured as −log IC50 (mol/l)] (converted)
T2 construct: made in house; host or cells: SF21 insect cells (baculovirus; pCRBac vector), 1000 x g supernatant of homogenate
T2 sequence (Q07343 whole entry): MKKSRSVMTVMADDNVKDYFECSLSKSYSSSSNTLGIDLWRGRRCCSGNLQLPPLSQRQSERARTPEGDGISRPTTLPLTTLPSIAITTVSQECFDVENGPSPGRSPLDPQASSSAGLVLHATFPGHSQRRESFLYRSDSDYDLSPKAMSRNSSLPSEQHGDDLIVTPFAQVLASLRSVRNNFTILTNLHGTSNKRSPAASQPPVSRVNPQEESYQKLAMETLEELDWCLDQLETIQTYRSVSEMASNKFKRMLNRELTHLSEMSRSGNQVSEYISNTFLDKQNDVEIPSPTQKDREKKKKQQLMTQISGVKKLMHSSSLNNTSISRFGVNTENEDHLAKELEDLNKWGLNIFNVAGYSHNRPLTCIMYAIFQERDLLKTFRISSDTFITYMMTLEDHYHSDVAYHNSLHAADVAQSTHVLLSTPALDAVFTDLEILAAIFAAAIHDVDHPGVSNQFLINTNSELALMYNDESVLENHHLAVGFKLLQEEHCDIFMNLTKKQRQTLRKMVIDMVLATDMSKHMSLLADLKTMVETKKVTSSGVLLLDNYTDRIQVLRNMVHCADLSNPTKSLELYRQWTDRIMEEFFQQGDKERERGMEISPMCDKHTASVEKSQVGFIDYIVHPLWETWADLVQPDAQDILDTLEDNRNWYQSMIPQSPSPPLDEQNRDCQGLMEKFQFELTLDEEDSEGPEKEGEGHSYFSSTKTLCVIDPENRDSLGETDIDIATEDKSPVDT
Summary of the method: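 Modified [3H]cAMP SPA using 1000×g supernatant of SF21 cells expressing recombinant human PDE4B1, in 20 mM Tris pH 7.4, 0.1 mg/ml BSA, 5 mM Mg2+, 0.5 μM cAMP. After 5 min preincubation at 37 °C, 15 min reaction, stopped with SPA beads plus IBMX; IC50 by non-linear regression.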

IC50 (PDE5A1) [nM]	IC50 (PDE4B1) [nM]	SMILES	other results
		CCCc1nn(C)c2c(=O)[nH]c(-c3cc(S(=O)(=O)N4CCN(C)CC4)ccc3OCC)nc12 [sildenafil]	bleomycin-induced pulmonary fibrosis and pulmonary hypertension [1]: attenuates bleomycin-induced pulmonary fibrosis and pulmonary hypertension; exercise tolerance [2]: increases exercise tolerance; lung hemodynamic (vascular resistance and ventilation/perfusion matching) [2]: improves lung hemodynamic
		O=C(Nc1c(Cl)cncc1Cl)c1ccc(OC(F)F)c(OCC2CC2)c1 [roflumilast]	fibrosis development (mice): inhibit fibrosis development
< 1	< 100	CCOC(=O)N[C@H]1CC[C@H](NC(=O)c2c(C)[nH]c3c(-c4cc(F)ccc4OCC4CC4)ncnc23)CC1 [Example E44, Ethyl {trans-4-[({4-[2-(cyclopropylmethoxy)-5-fluorophenyl]-6-methyl-5H-pyrrolo[3,2-d]pyrimidin-7-yl}carbonyl)amino]cyclohexyl}carbamate]	
1 to 10	< 100	CCC(=O)N1C[C@@H](NC(=O)c2c(C)[nH]c3c(-c4cc(C(F)F)ccc4OCC4CC4)ncnc23)C[C@@H]1C [Example P25, 4-[2-(Cyclopropylmethoxy)-5-(difluoromethyl)phenyl]-6-methyl-N-[(3S,5S)-5-methyl-1-propanoylpyrrolidin-3-yl]-5H-pyrrolo[3,2-d]pyrimidine-7-carboxamide]	
< 1	< 100	CC(=O)N1CCC(NC(=O)c2c(C)[nH]c3c(-c4cc(C)ccc4OCC4CC4)ncnc23)CC1 [Example E81, N-(1-Acetylpiperidin-4-yl)-4-[2-(cyclopropylmethoxy)-5-methylphenyl]-6-methyl-5H-pyrrolo[3,2-d]pyrimidine-7-carboxamide]	
< 1	< 100	COCC(=O)N[C@H]1CC[C@H](NC(=O)c2c(C)[nH]c3c(-c4cc(C(F)F)ccc4OCC4CC4)ncnc23)[C@@H](C)C1 (relative stereo) [Example P141, 4-[2-(Cyclopropylmethoxy)-5-(difluoromethyl)phenyl]-N-{(1S*,2S*,4S*)-4-[(methoxyacetyl)amino]-2-methylcyclohexyl}-6-methyl-5H-pyrrolo[3,2-d]pyrimidine-7-carboxamide]	
< 1	100 to 1000	COCC(=O)N[C@H]1CC[C@@H](NC(=O)c2c(C)[nH]c3c(-c4cc(OC)ccc4OCC4CC4)ncnc23)CC1 [Example E74, 4-[2-(Cyclopropylmethoxy)-5-methoxyphenyl]-N-{cis-4-[(methoxyacetyl)amino]cyclohexyl}-6-methyl-5H-pyrrolo[3,2-d]pyrimidine-7-carboxamide]	
